pKi: −log10 of the molar value. Like-named read-outs stand apart in the source and are kept apart here.

In data set [1] the target is thrombin (Bos taurus (Bovine), UniProt P00735). The experiment in a line: Enzyme assay, inhibition constant for thrombin (chromogenic substrate, Dixon method). The class given is biochemical, Rind. The following applies: substrate CH3SO2-D-Cha-Gly-Arg-pNA, mean of at least two measurements. The procedure:
(§1) Reactions were started by addition of 50 μl of enzyme solution.
(§2) The Ki values are the mean of at least two measurements. Enzymes and substrates used are set out in Table 1 below: […]

Data set [2] concerns the target plasma kallikrein (Homo sapiens (Human), UniProt P03952). Put plainly: Enzyme assay, inhibition constant for human plasma kallikrein (chromogenic substrate, Dixon method). Type of data set: biochemical. To be noted: 25° C., Tris HCl buffer pH 8.0, substrate H-D-Pro-Phe-Arg-pNA, mean of at least two measurements; read-out: Ki PK. The procedure: as §1, §2
For data set [3], the target named is Factor Xa (human) (Homo sapiens (Human), UniProt P00742). The experiment in a line: Enzyme assay, inhibition constant for factor Xa (chromogenic substrate, Dixon method). The class given is biochemical. The following applies: read-out: Ki FXa. The procedure: as §1, §2
Factor Xa (human), sequence (P00742 235-488): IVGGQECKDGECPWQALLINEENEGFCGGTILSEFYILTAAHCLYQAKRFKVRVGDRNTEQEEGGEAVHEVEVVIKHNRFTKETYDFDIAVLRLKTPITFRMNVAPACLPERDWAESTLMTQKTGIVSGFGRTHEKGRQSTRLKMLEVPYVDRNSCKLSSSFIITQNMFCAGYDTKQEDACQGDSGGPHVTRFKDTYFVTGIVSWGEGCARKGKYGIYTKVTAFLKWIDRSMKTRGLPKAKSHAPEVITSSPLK
Factor Xa (human), sequence (P00742 41-179 partner): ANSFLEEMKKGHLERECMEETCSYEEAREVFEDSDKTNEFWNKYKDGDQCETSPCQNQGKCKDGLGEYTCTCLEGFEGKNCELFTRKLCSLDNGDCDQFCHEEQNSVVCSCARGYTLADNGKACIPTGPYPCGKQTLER
Data set [4] concerns the target T1, plasmin (Homo sapiens (Human), UniProt P00747). The following applies: background, literature; read-out: Ki / inhibition constant for plasmin; cited from earlier work.
Target sequence in this assay (P00747 581-810, species assumed): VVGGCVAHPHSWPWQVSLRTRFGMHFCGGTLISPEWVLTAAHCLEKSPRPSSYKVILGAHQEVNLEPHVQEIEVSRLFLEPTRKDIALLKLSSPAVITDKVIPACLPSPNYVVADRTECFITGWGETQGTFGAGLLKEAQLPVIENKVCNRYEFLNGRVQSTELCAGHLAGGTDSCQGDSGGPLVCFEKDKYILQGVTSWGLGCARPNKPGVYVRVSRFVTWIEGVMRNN
Target sequence in this assay (P00747 97-580 partner, species assumed): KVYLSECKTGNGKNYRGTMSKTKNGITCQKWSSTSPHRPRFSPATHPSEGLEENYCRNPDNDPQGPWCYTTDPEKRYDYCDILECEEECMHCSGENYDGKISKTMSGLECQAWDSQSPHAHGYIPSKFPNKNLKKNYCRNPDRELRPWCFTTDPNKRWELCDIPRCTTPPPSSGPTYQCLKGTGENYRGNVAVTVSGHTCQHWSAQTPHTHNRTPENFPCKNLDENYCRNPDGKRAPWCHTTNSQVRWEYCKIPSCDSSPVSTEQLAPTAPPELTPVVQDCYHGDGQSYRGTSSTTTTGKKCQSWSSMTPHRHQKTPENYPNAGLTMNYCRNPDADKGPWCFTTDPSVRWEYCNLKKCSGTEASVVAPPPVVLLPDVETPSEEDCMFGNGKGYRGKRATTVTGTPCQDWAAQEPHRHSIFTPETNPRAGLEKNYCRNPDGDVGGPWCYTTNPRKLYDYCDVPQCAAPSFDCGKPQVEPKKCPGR
For data set [5], the target named is trypsin. The following applies: background; cited from earlier work.
The conditions of data set [6]: cited from earlier work.
Data set [7] addresses T1, plasmin. The experiment in a line: Enzyme assay, inhibition constant for human plasmin (chromogenic substrate, Dixon method). Type of data set: biochemical. The following applies: 25° C., Tris HCl buffer pH 8.0, substrate Tos-Gly-Pro-Lys-pNA, mean of at least two measurements; read-out: Ki h Plasmin. The procedure: as §1, §2
Target sequence in this assay (P00747 581-810): as the sequence (P00747 581-810, species assumed) above
Target sequence in this assay (P00747 97-580 partner): as the sequence (P00747 97-580 partner, species assumed) above
[8] abbreviates: substrate CH3OCO-D-Cha-Gly-Arg-pNA, mean of at least two measurements.

plasma kallikrein, sequence (P03952 391-638): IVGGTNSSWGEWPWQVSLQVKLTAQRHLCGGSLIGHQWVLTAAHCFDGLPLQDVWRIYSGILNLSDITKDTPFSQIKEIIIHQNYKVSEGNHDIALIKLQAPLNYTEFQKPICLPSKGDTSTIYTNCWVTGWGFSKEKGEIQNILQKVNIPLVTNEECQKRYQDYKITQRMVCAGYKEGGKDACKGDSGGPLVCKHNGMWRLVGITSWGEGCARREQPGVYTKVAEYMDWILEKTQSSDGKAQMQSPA
plasma kallikrein, sequence (P03952 20-390 partner): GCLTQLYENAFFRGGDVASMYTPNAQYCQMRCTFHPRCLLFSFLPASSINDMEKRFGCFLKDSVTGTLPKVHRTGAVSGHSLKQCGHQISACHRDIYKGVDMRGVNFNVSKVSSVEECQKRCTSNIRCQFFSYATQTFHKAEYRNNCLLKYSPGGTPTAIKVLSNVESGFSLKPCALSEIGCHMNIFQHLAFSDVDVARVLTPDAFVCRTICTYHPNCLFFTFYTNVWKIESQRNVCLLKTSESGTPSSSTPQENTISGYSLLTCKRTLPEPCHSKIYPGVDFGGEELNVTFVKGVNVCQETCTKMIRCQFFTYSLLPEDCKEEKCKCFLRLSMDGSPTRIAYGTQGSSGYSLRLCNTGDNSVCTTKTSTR

With `N=C(N)c1ccc(CNC(=O)[C@@H]2CCC(=O)NCc3cccc(c3)CNC(=O)CC[C@@H](NS(=O)(=O)Cc3ccccc3)C(=O)N2)cc1` [Inhibitor 13], the pKi in data set [1] was 5.69; in data set [2], 7.60; in data set [3] (setting [8]) it was 5.46.

Consider `N=C(N)c1ccc(CNC(=O)[C@@H]2Cc3cccc(c3)CNC(=O)CN3CCN(CC3)CC(=O)NCc3cccc(c3)C[C@@H](NS(=O)(=O)Cc3ccccc3)C(=O)N2)cc1` [Inhibitor 8], for which the pKi was 8.04 in data set [1], 7.50 in data set [2] and 7.58 in data set [3] (setting [8]).

In the case of `N=C(N)c1ccc(CNC(=O)[C@@H]2Cc3ccc(cc3)CNC(=O)Cc3cccc(c3)CC(=O)NCc3ccc(cc3)C[C@@H](NS(=O)(=O)Cc3ccccc3)C(=O)N2)cc1` [Inhibitor 3], the results for the pKi in data set [1], in data set [2] and in data set [3] (setting [8]) were 5.52, 6.26 and 5.24, respectively.

On to `N=C(N)c1ccc(CNC(=O)[C@@H]2CCN2C(=O)[C@H](NCC(=O)O)C2CCCCC2)cc1` [melagatran], for which the pKi in data set [4] is 6.15.

As for aprotinin, the pKi in data set [5] was 10.00. The “risk of anaphylactic shock” value in data set [6] (first administration) was < 0.1%; in data set [6] (repeated administration within 200 days) it was 4-5%.

On to `N=C(N)c1ccc(CNC(=O)[C@@H]2Cc3cccc(c3)CNC(=O)Cc3ccc(cc3)CC(=O)NCc3cccc(c3)C[C@@H](NS(=O)(=O)Cc3ccccc3)C(=O)N2)cc1` [Inhibitor 6], for which the pKi is 7.34 in data set [1], 6.87 in data set [2] and 6.82 in data set [3].

Consider `N=C(N)c1ccc(CNC(=O)[C@@H]2Cc3cn(nn3)Cc3cccc(c3)Cn3cc(nn3)C[C@@H](NS(=O)(=O)Cc3ccccc3)C(=O)N2)cc1` [Inhibitor 1], for which the pKi was 9.11 in data set [7], 5.37 in data set [1], 8.62 in data set [2] and 6.69 in data set [3] (setting [8]).

Regarding `N=C(N)c1ccc(CNC(=O)[C@@H]2Cc3cn(nn3)Cc3cccc(n3)Cn3cc(nn3)C[C@@H](NS(=O)(=O)Cc3ccccc3)C(=O)N2)cc1` [Inhibitor 2], the pKi in data set [7] was 8.66; in data set [1], 5.34; in data set [2] it was 8.00; in data set [3] (setting [8]) it was 5.73.

On to `N=C(N)c1ccc(CNC(=O)[C@@H]2Cc3cn(nn3)Cc3ccc(cc3)Cn3cc(nn3)C[C@@H](NS(=O)(=O)Cc3ccccc3)C(=O)N2)cc1` [Inhibitor 14], for which the pKi was 8.27 in data set [7], 6.66 in data set [1], 7.92 in data set [2] and 6.22 in data set [3] (setting [8]).

With `N=C(N)c1ccc(CNC(=O)[C@@H]2Cc3ccc(cc3)OCCCCOc3ccc(cc3)C[C@@H](NS(=O)(=O)Cc3ccccc3)C(=O)N2)cc1` [Inhibitor 11], the pKi in data set [7] was 8.72; in data set [1], 6.29; in data set [2], 7.47; in data set [3] (setting [8]), 5.70.

As to `N=C(N)c1ccc(CNC(=O)[C@@H]2Cc3cccc(c3)CNC(=O)Cc3cccc(c3)CC(=O)NCc3cccc(c3)C[C@@H](NS(=O)(=O)Cc3ccccc3)C(=O)N2)cc1` [Inhibitor 5], the results for the pKi in data set [1], in data set [2] and in data set [3] (setting [8]) were 7.57, 7.76 and 7.38, respectively.

As to `N=C(N)c1ccc(CNC(=O)[C@@H]2CCCCNC(=O)c3cccc(c3)C(=O)NCCCC[C@@H](NS(=O)(=O)Cc3ccccc3)C(=O)N2)cc1` [Inhibitor 12], the pKi in data set [7] is 7.42; in data set [1] it was 6.73; in data set [2], 7.74; in data set [3] (setting [8]) it was 6.42.

Consider `N=C(N)c1ccc(CNC(=O)[C@@H]2Cc3ccc(cc3)NC(=O)CN3CCN(CC3)CC(=O)Nc3ccc(cc3)C[C@@H](NS(=O)(=O)Cc3ccccc3)C(=O)N2)cc1` [Inhibitor 15], for which the pKi in data set [7] is 9.17; in data set [1], 5.08; in data set [2], 6.49; in data set [3] (setting [8]), < 5.00.

For `N=C(N)c1ccc(CNC(=O)[C@@H]2Cc3cccc(c3)CNC(=O)Cc3ccccc3CC(=O)NCc3cccc(c3)C[C@@H](NS(=O)(=O)Cc3ccccc3)C(=O)N2)cc1` [Inhibitor 7], the pKi in data set [1] is 6.24; in data set [2], 8.05; in data set [3] (setting [8]), 6.99.

On to `N=C(N)c1ccc(CNC(=O)[C@@H]2Cc3ccc(cc3)CNC(=O)Cc3ccc(cc3)CC(=O)NCc3ccc(cc3)C[C@@H](NS(=O)(=O)Cc3ccccc3)C(=O)N2)cc1` [Inhibitor 4], for which the pKi was 5.19 in data set [1], 6.06 in data set [2] and 5.03 in data set [3] (setting [8]).

Turning to `N=C(N)c1ccc(CNC(=O)[C@@H]2Cc3ccc(cc3)CNC(=O)CN3CCN(CC3)CC(=O)NCc3ccc(cc3)C[C@@H](NS(=O)(=O)Cc3ccccc3)C(=O)N2)cc1` [Inhibitor 9], the pKi in data set [1] is 5.67; in data set [2], 6.31; in data set [3] (setting [8]), 5.46.

Source of the values: patent publication US8921319B2, “Serine protease inhibitors” (The Medicines Company (Leipzig) GmbH, priority 2010, dated 2014).
